# Test results from US8344004B2, “Cyclic pyridyl-N-[1,3,4]-thiadiazol-2-yl-benzene sulfonamides, processes for their preparation and their use as pharmaceuticals” (Sanofi, priority 2007, dated 2013).
# Where two headings read alike, the source gives them in different places.
# Legend:
# [1] = diabetic animal model; cited from earlier work
# [2] = biological target: T1, human PPARgamma (Homo sapiens, UniProt P37231); experiment: Cellular PPARgamma assay (transiently transfected HEK cells, luciferase reporter); format: cell-based; settings: GAL4-humanPPARgammaLBD
# T1 construct: amino acids I152-Y475; expressed in transfected cells; host or cells: HEK cells, transiently transfected with pcDNA3-GAL4-humanPPARgammaLBD
# T1 sequence (P37231 182-477 isoform P37231-2 limits assumed): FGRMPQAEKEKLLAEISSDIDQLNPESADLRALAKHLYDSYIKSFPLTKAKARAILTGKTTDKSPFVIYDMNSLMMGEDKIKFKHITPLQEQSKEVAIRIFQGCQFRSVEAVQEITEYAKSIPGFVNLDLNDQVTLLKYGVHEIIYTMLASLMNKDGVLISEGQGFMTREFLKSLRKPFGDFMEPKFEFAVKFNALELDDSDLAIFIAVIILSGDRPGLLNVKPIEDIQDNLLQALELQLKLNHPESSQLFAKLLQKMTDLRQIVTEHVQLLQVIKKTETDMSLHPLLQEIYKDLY
# Excerpt: A transient transfection system is employed to determine the cellular PPARgamma activity of PPAR agonists. It is based on the use of a luciferase reporter plasmid (pGL3basic-5×GAL4-TK) and of a PPARgamma expression plasmid (pcDNA3-GAL4-humanPPARgammaLBD). Both plasmids are transiently transfected into human embryonic kidney cells (HEK cells). There is then expression in these cells of the fusion protein GAL4-humanPPARgammaLBD which binds to the GAL4 binding sites of the reporter plasmid. In the presence of a PPARgamma-active ligand, the activated fusion protein GAL4-humanPPARgammaLBD induces expression of the luciferase reporter gene, which can be detected in the form of a chemiluminescence signal after addition of a luciferase substrate. As a difference from the stably transfected PPARalpha reporter cell line, in the cellular PPARgamma assay the two components (luciferase reporter plasmid and PPARgamma expression plasmid) are transiently transfected into HEK cells because stable and permanent expression of the PPARgamma fusion protein is cytotoxic.
# The luciferase reporter plasmid pGL3basic-5×GAL4-TK is based on the vector pGL3basic from Promega. The reporter plasmid is prepared by cloning five binding sites of the yeast transcription factor GAL4 (each binding site with the sequence 5′-CTCGGAGGACAGTACTCCG-3′), together with a 160 bp-long thymidine kinase promoter section (Genbank Accession # AF027128) 5′-upstream into pGL3basic. 3′-downstream of the thymidine kinase promoter is the complete luciferase gene from Photinus pyralis (Genbank Accession # M15077) which is already a constituent of the plasmid pGL3basic used. The cloning and sequencing of the reporter plasmid pGL3basic-5×GAL4-TK took place in analogy to the description in Sambrook J. et. al. (Molecular cloning, Cold Spring Harbor Laboratory Press, 1989).
# The PPARgamma expression plasmid pcDNA3-GAL4-humanPPARgammaLBD was prepared by first cloning the cDNA coding for amino acids 1-147 of the yeast transcription factor GAL4 (Genbank Accession # P04386) into the plasmid pcDNA3 (from Invitrogen) 3′-downstream of the cytomegalovirus promoter. Subsequently, the cDNA of the ligand-binding domain (LBD) of the human PPARgamma receptor (amino acids I152-Y475; Accession # g1480099) 3′-downstream of the GAL4 DNA binding domain. Cloning and sequencing of the PPARgamma expression plasmid pcDNA3-GAL4-humanPPARgammaLBD again took place in analogy to the description in Sambrook J. et. al. (Molecular cloning, Cold Spring Harbor Laboratory Press, 1989). Besides the luciferase reporter plasmid pGL3basic-5×GAL4-TK and the PPARgamma expression plasmid pcDNA3-GAL4-humanPPARgammaLBD, also used for the cellular PPARgamma assay are the reference plasmid pRL-CMV (from Promega) and the plasmid pBluescript SK(+) from Stratagene. All four plasmids were prepared using a plasmid preparation kit from Qiagen, which ensured a plasmid quality with a minimal endotoxin content, before transfection into HEK cells.
# The activity of PPARgamma agonists is determined in a 4-day assay which is described below. Before the transfection, HEK cells are cultivated in DMEM (#41965-039, Invitrogen) which is mixed with the following additions: 10% FCS (#16000-044, Invitrogen), 1% penicillin-streptomycin solution (#15140-122, Invitrogen) and 2 mM L-glutamine (#25030-024, Invitrogen).
# Firstly, solution A, a transfection mixture which contains all four plasmids previously described in addition to DMEM, is prepared. […]
# [3] = biological target: T2, human PPARdelta (Homo sapiens, UniProt Q03181); experiment: Cellular PPARdelta assay (stably transfected HEK luciferase reporter cell line); format: cell-based; settings: GR-GAL4-humanPPARdelta-LBD
# T2 construct: amino acids S139-Y441; expressed in transfected cells; host or cells: HEK cells, stably transfected (pcDNA3, CMV promoter)
# T2 sequence (Q03181 139-441): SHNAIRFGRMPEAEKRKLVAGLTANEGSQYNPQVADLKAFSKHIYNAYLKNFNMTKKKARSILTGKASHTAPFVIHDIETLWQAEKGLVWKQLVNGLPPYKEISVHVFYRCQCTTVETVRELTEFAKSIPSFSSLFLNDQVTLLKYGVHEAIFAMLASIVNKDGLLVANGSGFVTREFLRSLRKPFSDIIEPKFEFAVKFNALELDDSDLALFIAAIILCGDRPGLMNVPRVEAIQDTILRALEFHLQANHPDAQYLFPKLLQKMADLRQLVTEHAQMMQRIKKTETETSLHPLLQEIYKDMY
# Experimental: The PPARalphareporter cell line is cultivated to 80% confluence in DMEM (#41965-039, Invitrogen) which is mixed with the following additions: 10% cs-FCS (fetal calf serum; #SH-30068.03, Hyclone), 0.5 mg/ml zeocin (#R250-01, Invitrogen), 0.5 mg/ml G418 (#10131-027, Invitrogen), 1% penicillin-streptomycin solution (#15140-122, Invitrogen) and 2 mM L-glutamine (#25030-024, Invitrogen). The cultivation takes place in standard cell culture bottles (# 353112, Becton Dickinson) in a cell culture incubator at 37° C. in the presence of 5% CO2. The 80%-confluent cells are washed once with 15 ml of PBS (#14190-094, Invitrogen), treated with 3 ml of trypsin solution (#25300-054, Invitrogen) at 37° C. for 2 min, taken up in 5 ml of the DMEM described and counted in a cell counter. After dilution to 500.000 cells/ml, 35,000 cells are seeded in each well of a 96 well microtiter plate with a clear plastic base (#3610, Corning Costar). The plates are incubated in the cell culture incubator at 37° C. and 5% CO2 for 24 h.
# PPARalpha agonists to be tested are dissolved in DMSO in a concentration of 10 mM. This stock solution is diluted in DMEM (#41965-039, Invitrogen) which is mixed with 5% cs-FCS (#SH-30068.03, Hyclone), 2 mM L-glutamine (#25030-024, Invitrogen) and the previously described antibiotics (zeocin, G418, penicillin and streptomycin). Test substances are tested in 11 different concentrations in the range from 10 μM to 100 pM.
# The medium of the PPARalpha reporter cell line seeded on day 1 is completely removed by aspiration, and the test substances diluted in medium are immediately added to the cells. The dilution and addition of the substances is carried out by a robot (Beckman FX). The final volume of the test substances diluted in medium is 100 μl per well of a 96 well microtiter plate. The DMSO concentration in the assay is less than 0.1% v/v in order to avoid cytotoxic effects of the solvent.
# The assay plates are incubated in an incubator at 37° C. and 5% CO2 for 24 h.
# The PPARalpha reporter cells treated with the test substances are removed from the incubator, and the medium is aspirated off. The cells are lyzed by pipetting 50 μl of Bright Glo reagent (from Promega) into each well of a 96 well microtiter plate. After incubation at room temperature in the dark for 10 minutes, the microtiter plates are measured in the luminometer (Trilux from Wallac). The measuring time for each well of a microtiter plate is 1 sec.
# The raw data from the luminometer are transferred into a Microsoft Excel file. Dose-effect plots and EC50 values of PPAR agonists are calculated using the XL.Fit program as specified by the manufacturer (IDBS).
# The potency of substances which bind to human PPARdelta and activate it in an agonistic manner is analyzed using a stably transfected HEK cell line (HEK=human embryo kidney) which is referred to here as PPARdelta reporter cell line. In analogy to the assay described for PPARalpha, the PPARdelta reporter cell line also contains two genetic elements, a luciferase reporter element (pdeltaM-GAL4-Luc-Zeo) and a PPARdelta fusion protein (GR-GAL4-humanPPARdelta-LBD) which mediates expression of the luciferase reporter element depending on a PPARdelta ligand. […] The luciferase which is formed can be detected by means of chemiluminescence via an appropriate substrate. […]
# [4] = rhesus and cynomolgus monkeys; cited from earlier work
# [5] = two weeks clinical trials in healthy volunteers; cited from earlier work
# [6] = obese, insulin resistant rhesus monkeys; cited from earlier work
compound,measurement,setting,value
CCCc1c(OCCCOc2ccc(OCC(=O)O)cc2)ccc(C(C)=O)c1O [Example L-165041],plasma cholesterol,[1],raises plasma cholesterol
"CC(C)c1nnc(NS(=O)(=O)c2ccc(C3(CNc4ncc(C(F)(F)F)cc4Cl)CCCCC3)cc2)s1 [Example 1, 4-{1-[(3-Chloro-5-trifluoromethyl-pyridin-2-ylamino)-methyl]-cyclohexyl}-N-(5-isopropyl-[1,3,4]thiadiazol-2-yl)-benzenesulfonamide]",EC50,[2],26 nM
same,EC50,[3],60 nM
CCCc1c(OCCCSc2nnc(SCC(=O)O)s2)ccc(C(C)=O)c1O [YM-16638],plasma lipids,[4],significantly lowers
same,plasma lipids,[5],acts in a similar manner
"CC(C)c1nnc(NS(=O)(=O)c2ccc(C3(CNc4ncc(C(F)(F)F)cc4Cl)CCCC3)cc2)s1 [Example 4, 4-{1-[(3-Chloro-5-trifluoromethyl-pyridin-2-ylamino)-methyl]-cyclopentyl}-N-(5-isopropyl-[1,3,4]thiadiazol-2-yl)-benzene-sulfonamide]",EC50,[2],990 nM
same,EC50,[3],220 nM
"CC(C)c1nnc(NS(=O)(=O)c2ccc([C@@H]3CCC[C@H]3Nc3ncc(C(F)(F)F)cc3Cl)cc2)s1 [Example 2, Trans-4-[(1S,2R)-2-(3-chloro-5-trifluoromethyl-pyridin-2-ylamino)-cyclopentyl]-N-(5-isopropyl-[1,3,4]thiadiazol-2-yl)-benzene-sulfonamide]",EC50,[2],647 nM
same,EC50,[3],67 nM
"CC(C)c1nnc(NS(=O)(=O)c2cc3c(cc2Cl)CC(Nc2ncc(C(F)(F)F)cc2Cl)C3)s1 (centres unmarked) [Example 8, 6-Chloro-2-(3-chloro-5-trifluoromethyl-pyridin-2-ylamino)-indan-5-sulfonic acid (5-isopropyl-[1,3,4]thiadiazol-2-yl)amide]",EC50,[2],> 10000 nM
same,EC50,[3],779 nM
Cc1cc(SCc2sc(-c3ccc(C(F)(F)F)cc3)nc2C)ccc1OCC(=O)O [GW501516],HDL-cholesterol,[6],raises
same,insulin levels,[6],decreases
same,plasma LDL-cholesterol,[6],decreases
same,triglycerides,[6],decreases
"CC(C)c1nnc(NS(=O)(=O)c2ccc([C@@H]3CCC[C@@H]3Nc3ncc(C(F)(F)F)cc3Cl)cc2)s1 [Example 3, Cis-4-[(1S,2R)-2-(3-chloro-5-trifluoromethyl-pyridin-2-ylamino)-cyclopentyl]-N-(5-isopropyl-[1,3,4]thiadiazol-2-yl)-benzene-sulfonamide]",EC50,[2],1800 nM
same,EC50,[3],1 nM
